Structures can show the parent of a compound that is named as a salt.
Experiments:
[1] = test system: Bone-marrow derived dendritic cells (BMDC); assay: Co-stimulatory marker and MHC surface expression by FACS in BMDC stimulated with LPS and OVA257-264 peptide; format: cell-based, C57BL/6 mice; settings: pre-treated 1 hour, then LPS 100 ng/ml + OVA257-264 peptide 10 μM for 24 hours; live CD11c+ population
Method: (§1) Cells were analysed for expression of co-stimulatory markers and MHC complexes at the cell surface by FACS, gated on the live CD11c+ population. Panel A) Median fluorescence intensity ([…]) of CD40, CD80 and CD86 expression. Panel B) Overall expression of MHC-II, given by the expression of I-Ab. Panel C) Relative surface expression of MHC-I (H2-Kb): OVA257-264 peptide complexes over the total surface expression of H2-Kb. Panel D) Quantification of cytokine secretion by ELISA. Data is expressed as the mean+/−standard error of the mean (SEM). Statistical significance was determined by a student's t-test with *p≤0.05.
(§2) LPS (100 ng/ml) was used in this instance as a model Toll-like Receptor ligand for a pathogen and a surrogate for the licensed TLR-specific adjuvant-MPLA.

LPS-matured BMDC = settings: DC matured with 100 ng/ml LPS 36 h; pretreated 1 hour, Eα55-68 pulse 3 hours, analyzed after 24 hours; live CD11c+MHC-II(I-Ab) high; vehicle 1553.33±54.93, p=0.03
Description: Specifically, these complexes were recognized using fluorochrome-labelled monoclonal antibodies of Y-Ae for I-Ab: Eα55-68 complexes and 25-D1.16 for H2-Kb: OVA257-264 complexes. In all experiments, BMDC were differentiated in vitro from bone marrow precursor cells of C57BL/6 mice using GM-CSF and IL-4 at 250 and 5 UI/ml, respectively.

[2] = test system: Bone-marrow derived dendritic cells (BMDC); assay: Cytokine secretion by ELISA in BMDC stimulated with LPS and OVA257-264 peptide; format: cell-based, C57BL/6 mice; settings: LPS 100 ng/ml + OVA257-264 peptide 10 μM, after 24 hours
Method: as §1, §2

[3] = test system: immature DC (CD11c+MHC-II int); assay: Endocytosis (uptake) of OVA-AF647 protein by immature DC; format: cell-based, C57BL/6 mice; settings: pretreated 3 hours (ACB1801s 20 μM), OVA-AF647 2 μg/ml; for percentage of OVA-AF647+ cells: 3 mice, vehicle 71.00+/−0.058; for Median Fluorescence Intensity of OVA-AF647 within the positive population (amount of protein taken up): vehicle 5533.33+/−60.26, P≤0.0001

Compound | expression of CD80/CD86 co-stimulatory markers [1] | overall expression of surface MHC-II (I-Ab) [1] | Median Fluorescence Intensity (MFI) of I-Ab: Eα55-68 specific complexes (LPS-matured BMDC) | levels of pro-inflammatory cytokines (IL-6, and TNF) [2] | percentage of OVA-AF647+ cells [3] | Median Fluorescence Intensity of OVA-AF647 within the positive population (amount of protein taken up) [3]
COc1ccc2c(c1)[nH]c1c(C)nccc12.Cl [ACB1801s, harmine HCl] | increased | increased | 1742.33±15.62 | reduced | 72.37+/−0.94 | 6725.67+/−41.450
Cc1[nH]ccc2c1[nH]c1cc(=O)ccc12 [ACB1804s, harmol HCl] | – | – | – | – | 73.867+/−0.751 | 6628+/−98.475
